Experimental data published in patent publication US5274118A, “Process for preparing (2R)-methyl-4,4,4-trifluorobutylamine” (Imperial Chemical Industries PLC, priority 1990, dated 1993).
pKi: −log10 of the molar value.

Assays:
[1] = molecular target: T1, leukotrienes LTC4, LTD4 and/or LTE4 (Cavia porcellus, UniProt Q2NNR5); assay: receptor-ligand binding assay described by Aharony; conditions: typically determined
T1 construct: from tissue
T1 sequence (Q2NNR5 1-340): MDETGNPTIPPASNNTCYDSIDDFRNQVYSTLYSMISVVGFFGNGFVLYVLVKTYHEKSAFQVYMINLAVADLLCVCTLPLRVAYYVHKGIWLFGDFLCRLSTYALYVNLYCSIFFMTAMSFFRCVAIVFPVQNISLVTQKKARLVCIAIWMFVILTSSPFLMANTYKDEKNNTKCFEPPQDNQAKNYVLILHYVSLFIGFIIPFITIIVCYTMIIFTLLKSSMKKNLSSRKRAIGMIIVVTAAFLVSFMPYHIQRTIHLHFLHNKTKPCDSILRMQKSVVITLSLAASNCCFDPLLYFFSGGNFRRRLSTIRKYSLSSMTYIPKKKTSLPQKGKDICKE

[2] = test system: leukotriene LTD4; assay: guinea-pig aerosol test (LTD4 aerosol challenge, onset of dyspnea); assay type: in vivo; conditions: guinea-pigs
Experimental: According to this procedure, guinea-pigs are pre-dosed with test compound as a solution in poly(ethylene glycol) (generally 1 hour) before an aerosol challenge of leukotriene LTD4 (starting with 2 ml of a 30 microgram/ml solution) and the effect of the test compound on the average time of leukotriene initiated change in breathing pattern (such as onset of dyspnea) recorded and compared with that in undosed, control guinea-pigs. Percent protection engendered by a test compound was calculated from the time delay to the onset of dyspnea compared to that for control animals.

**Q.** COc1cc(C(=O)NS(=O)(=O)c2ccccc2C)ccc1Cc1cn(C)c2ccc(C(=O)NC[C@H](C)CC(F)(F)F)cc12 [compound of formula I substantially in the form of the (R)-enantiomer, (R)-3-Methoxy-4-[1-methyl-5-(2-methyl-4,4,4-trifluorobutylcarbamoyl)indol-3-ylmethyl]-N-(2-methylphenylsulfonyl)benzamide] was tested. Which pKi [1] did it give?
**A.** 9.40

**Q.** And the ED50 ([2]; Cavia porcellus, oral administration, pre-dosed generally 1 hour before LTD4 aerosol challenge, read-out: ED50 (protection against LTD4-induced dyspnea))?
**A.** 1.1 µmol/kg

**Q.** What about the untoward side-effects ([2]; oral, at several multiples of the minimum effective dose) of the same compound?
**A.** without any indication of untoward side-effects
